In brackets after ≈: the same amount, converted by molar mass.
Tests used:
[1] = Aqueous solubility by UV spectrophotometry (500 μM solutions in aqueous media from DMSO stock); assay type: physicochemical; settings: for solubility: kinetic from dmso stock, aqueous media, 500 μM solution prepared from DMSO stock, UV OD at λmax; for Aqueous solubility compared with Quercetin (II) / QC-12 (IV), in words: comparison drawn from Table-II
Procedure: The aqueous solubility of the novel Quercetin derivatives of formula (I) were determined and subsequently compared with QC 12. 500 μM solutions of the various novel Quercetin derivatives were prepared in aqueous media from DMSO stock solution. The samples were scanned in UV spectrophotometer at its λmax to obtain optical density (O.D) of the compound. Concentration against the OD value was obtained by calibration curve constructed by plotting the Optical density Vs concentration of calibration standards of the compounds.
Calibration standards were prepared by diluting the stock solution of the compound further in suitable solvents ensuring the overall compound solubility. Calibration standard of concentration 500 μM, 200 μM, 50 μM, 12.5 μM and 3.13 μM were prepared. These calibration standards were scanned in UV spectrophotometer at its highest wavelength (λmax) to obtain the optical density values (OD). A standard curve was constructed by plotting the Optical density Vs concentration.

[2] = tested on: SKOV3 (Ovary) cancer cells; experiment: Colorimetric MTT conversion assay, SKOV3; assay type: cell-based; settings: Homo sapiens, SK-OV-3, 72 h exposure, 10 μM to 100 μM
Procedure: (§1) The anticancer potential of the novel Quercetin derivatives of formula (I) were evaluated and subsequently compared with Quercetin (II). The anticancer potential was determined by the colorimetric MTT conversion assay of Mossman. Human cancer cells representing ovary (PA-1; SK-OV-3); prostate (DU 145); lung (A-549) and normal fibroblast (NIH-3T3) were separately seeded at density of 1000 cells/well into 96 well plates in 180 μl of culture medium with 10% fetal calf serum. After 24 h, cells were incubated with different concentrations of the novel Quercetin derivatives ranging from 10 μM to 100 μM with relevant controls at 37° C. in a CO2 incubator in triplicate wells. The exposure medium (Quercetin derivatives in culture medium) of all the cells was refreshed after every 24 h. Cells were incubated with the derivatives for total of 72 h. The assay was terminated by the addition of 20 μl, of MTT solution (5 mg/ml) in each well and percentage cytotoxicity was calculated as given below. The IC50 values were determined by nonlinear regression using Prism software v 4.01.
(§2) Percentage Cytotoxicity=100×[1−(X/R1)], where X=absorbance of treated sample at 540 nm

[3] = tested on: PA-1 (Ovary) cancer cells; experiment: Colorimetric MTT conversion assay, PA-1; assay type: cell-based; settings: Homo sapiens, 72 h exposure, 10 μM to 100 μM
Procedure: as §1, §2

[4] = tested on: DU 145 (Prostate) cancer cells; experiment: Colorimetric MTT conversion assay, DU 145; assay type: cell-based; settings: Homo sapiens, 72 h exposure, 10 μM to 100 μM
Procedure: as §1, §2

[5] = tested on: NIH 3T3 (Normal) fibroblast; experiment: Colorimetric MTT conversion assay, NIH 3T3; assay type: cell-based; settings: Mus musculus, NIH3T3, 72 h exposure, 10 μM to 100 μM
Procedure: as §1, §2

[6] = Plasma stability (half-life in plasma, 100 μM, 37° C., liquid chromatography); assay type: in vitro ADME; settings: plasma spiked at 100 μM, incubated at 37° C.
Procedure: The Plasma stability of the novel Quercetin derivatives of formula (I) were evaluated by determining their half-life in plasma and subsequently compared with QC-12 (IV). Plasma samples of concentration 100 μM spiked with the compounds were incubated at 37° C. and at specified time point the samples were quenched using chilled acetonitrile. Samples were then analyzed using liquid chromatography to determine the concentration at respective time point. Half-life was calculated from the logarithmic curve drawn between time and concentration.

[7] = tested on: different Cancer Cell Lines; experiment: Colorimetric MTT conversion assay, overall comparison over the cell line panel; assay type: cell-based, Human; settings: comparison drawn from Table-IV
Procedure: as §1, §2

[8] = tested on: A 549 (Lung) cancer cells; experiment: Colorimetric MTT conversion assay, A 549; assay type: cell-based; settings: Homo sapiens, A549, 72 h exposure, 10 μM to 100 μM
Procedure: as §1, §2

solubility [1] | IC50 [2] | IC50 [3] | IC50 [4] | Aqueous solubility compared with Quercetin (II) / QC-12 (IV), in words [1] | half-life at 100 μM [6] | IC50 [8] | Structure (SMILES) | IC50 [5] | Cytotoxic potential compared with Quercetin (II), in words [7]
1.48 µM (≈ 1.02 µg/mL) | > 100 µM | > 100 µM | > 100 µM | – | – | – | CC(C)(C)C(=O)OCOc1cc(-c2oc3cc(OCc4ccccc4)cc(O)c3c(=O)c2OCc2ccccc2)ccc1OCc1ccccc1 [Compound No. 1, (2-(Benzyloxy)-5-(3,7-bis(benzyloxy)-5-hydroxy-4-oxo-4H-chromen-2-yl)phenoxy)methyl pivalate] | > 100 µM | –
0.591 µM | > 100 µM | > 100 µM | > 100 µM | – | – | – | CC(=O)OCOc1cc(-c2oc3cc(OCc4ccccc4)cc(O)c3c(=O)c2OCc2ccccc2)ccc1OCc1ccccc1 [Compound No. 2, (2-(Benzyloxy)-5-(3,7-bis(benzyloxy)-5-hydroxy-4-oxo-4H-chromen-2-yl)phenoxy)methyl acetate] | > 100 µM | –
30.6 µM (≈ 12.7 µg/mL) | > 100 µM | 20.9 µM | 83.1 µM | better solubility than Quercetin (II) | 6.24 min | – | CC(C)(C)C(=O)OCOc1cc(-c2oc3cc(O)cc(O)c3c(=O)c2O)ccc1O [Compound No. 7, (2-hydroxy-5-(3,5,7-trihydroxy-4-oxo-4H-chromen-2-yl)phenoxy)methyl pivalate] | > 100 µM | better cytotoxic potential than Quercetin (II)
16.5 µM | > 100 µM | 19.4 µM | > 100 µM | better solubility than Quercetin (II) | < 3 min | – | CC(=O)OCOc1cc(-c2oc3cc(O)cc(O)c3c(=O)c2O)ccc1O [Compound No. 8, (2-hydroxy-5-(3,5,7-trihydroxy-4-oxo-4H-chromen-2-yl)phenoxy)methyl acetate] | > 100 µM | better cytotoxic potential than Quercetin (II)
< 3.13 µM | > 100 µM | > 100 µM | > 100 µM | – | – | > 100 µM | CCCC(=O)OCOc1cc(-c2oc3cc(OCc4ccccc4)cc(O)c3c(=O)c2OCc2ccccc2)ccc1OCc1ccccc1 [Compound No. 13, (2-(Benzyloxy)-5-(3,7-bis(benzyloxy)-5-hydroxy-4-oxo-4H-chromen-2-yl)phenoxy)methyl butyrate] | > 100 µM | –
199 µM (≈ 80.1 µg/mL) | 94.6 µM | < 10 µM | > 100 µM | solubility comparable to QC-12 (IV) | < 3 min | 61.9 µM | CCCC(=O)OCOc1cc(-c2oc3cc(O)cc(O)c3c(=O)c2O)ccc1O [Compound No. 14, (2-hydroxy-5-(3,5,7-trihydroxy-4-oxo-4H-chromen-2-yl)phenoxy)methyl butyrate] | > 100 µM | better cytotoxic potential than Quercetin (II)
4.02 µM (≈ 1.22 µg/mL) | 88.4 µM | 35.3 µM | > 100 µM | – | – | 83.7 µM | O=c1c(O)c(-c2ccc(O)c(O)c2)oc2cc(O)cc(O)c12 [Quercetin (II), 2-(3,4-Dihydroxyphenyl)-3,5,7-trihydroxy-4H-1-benzopyran-4-one, reference compound] | 68.7 µM | –

Structure (SMILES) | solubility [1] | IC50 [2] | IC50 [3] | IC50 [4] | Aqueous solubility compared with Quercetin (II) / QC-12 (IV), in words [1] | half-life at 100 μM [6] | IC50 [8] | IC50 [5] | Cytotoxic potential compared with Quercetin (II), in words [7]
O=C(O)CNC(=O)Oc1cc(-c2oc3cc(O)cc(O)c3c(=O)c2O)ccc1O [QC-12 (IV), reference compound] | > 200 µM | – | – | – | – | 43.9 min | – | – | –

— patent US20110034413A1, “NOVEL QUERCETIN DERIVATIVES AS ANTI-CANCER AGENTS” (priority 2007, published 2011)
